Measured values as given in patent US11584763B2, “Chromenopyridine derivatives as phosphatidylinositol phosphate kinase inhibitors” (HIBERCELL, INC., priority 2017, dated 2023).

Assays:
PIP4K2B = molecular target: T1, PIP4K2B (Homo sapiens, UniProt P78356); experiment: Trans-FI P kinase assay PIP4K2B (PIP4KtypeIIB inhibition assay); assay type: biochemical; settings: compounds listed under IC50 bin headings; 100 uM GTP; read-out: Trans-FI P kinase assays: PIP4K2B IC50
T1 construct: made in house; host or cells: E. coli
T1 sequence (P78356 1-416): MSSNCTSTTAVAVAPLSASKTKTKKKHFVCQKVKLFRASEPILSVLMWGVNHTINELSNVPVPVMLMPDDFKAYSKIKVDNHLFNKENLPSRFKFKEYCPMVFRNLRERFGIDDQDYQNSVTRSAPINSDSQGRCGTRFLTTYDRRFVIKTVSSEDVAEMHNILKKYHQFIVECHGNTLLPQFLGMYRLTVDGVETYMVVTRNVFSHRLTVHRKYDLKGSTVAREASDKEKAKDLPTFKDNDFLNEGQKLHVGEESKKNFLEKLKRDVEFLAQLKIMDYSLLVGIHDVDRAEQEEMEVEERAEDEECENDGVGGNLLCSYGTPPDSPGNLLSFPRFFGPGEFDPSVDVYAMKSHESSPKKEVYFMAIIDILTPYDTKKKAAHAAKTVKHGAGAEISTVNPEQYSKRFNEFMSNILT
Source text: GST tagged PIP4KtypeIIA and B enzymes were overexpressed in E. Coli and purified to >80% homogeneity. Phosphatidyl inositol-5-phosphate (PI5P, Cat. #850152, Avanti Polar Lipids Inc.) was used as the lipid substrate and phosphatidyl ethanolamine (DOPE 18:1, Cat. #850725, Avanti Polar Lipids Inc.) was used as the carrier lipid for assays. Ultrapure ATP and GTP was purchased from Bellbrooke Labs. ADP Glo reagents were obtained from Promega. Transcreener FI reagent was obtained from Bellbrooke labs.
GST-tagged PIP4KtypeIIB (3.4 uL, 2.77 mg/mL) was diluted to 5 mL using HNE buffer to yield 5× enzyme stock (25 nM)
Lipid Preparation: In a 10 mL pyrex glass vial, 1 ug of PI5P and 1 ug of DOPE were suspended in 2.5 mL of HEPES buffer mix and 2.5 mL of H:E buffer. The contents were mixed and sonicated for 3 min to yield a translucent lipid stock.
Compound Preparation: Compounds were stored as 5 mM stocks in neat DMSO as room temperature in glass vials. 5 mM stocks were diluted to 2 mM and then serially diluted (3×) in neat DMSO in 96 well polypropylene plates. From the serially diluted stocks, 3 uL was delivered into 250 uL of 25% DMSO (in water) to generate 5× compound stocks. Typically, the highest compound conc. was 24 uM.
The assay volume was kept at 25 uL. To each well of the reaction plate, 10 uL of lipid stock (1:1 ratio PI5P:DOPE) was delivered. This was followed by the addition of 5 uL of compound in 25% DMSO. Then, to each well, 5 uL of 25 nM (5×) typeIIB enzyme was delivered. The contents were mixed well and incubated for 1 h at 27 C. After 1 h, reaction was initiated by adding 5 uL of 500 uM GTP and the contents were mixed well with a multi-channel pipetteman. The final concentration of the reagents are as follows: 50 mM HEPES, pH 7.3, 10 mM MgCl2, 20 mM NaCl, 0.01% v/v triton-X100, 5% DMSO, 100 uM GTP, 80 uM (2 ug) PI5P, 2 ug DOPE, and 5 nM PIP4KIIB Typically, the highest conc. of compounds was 4.8 uM and the lowest conc. was 0.
After 2 h, the reaction was quenched by adding 25 uL of transcreener FI reagent. The contents were incubated at RT for 1 h and the Fluorescence (Ex: 584 Em: 623) was read using Molecular Devices Paradigm plate reader. […] The blanks were averaged and subtracted from all other wells. Using a calibration curve, RFU was converted to uM GDP (product). IC50 was calculated by plotting the residual activity (expressed as % No inhibitor control) vs. log [Inh. conc.]

PIP4K 2A = molecular target: T2, PIP4K 2A (Homo sapiens, UniProt P48426); experiment: ADP-glo kinase assay PIP4K 2A; assay type: biochemical; parameters: 4 nM PIP4K2A (full length protein, SignalChem); purchased SignalChem; settings: compounds listed under IC50 bin headings
T2 sequence (P48426 1-406): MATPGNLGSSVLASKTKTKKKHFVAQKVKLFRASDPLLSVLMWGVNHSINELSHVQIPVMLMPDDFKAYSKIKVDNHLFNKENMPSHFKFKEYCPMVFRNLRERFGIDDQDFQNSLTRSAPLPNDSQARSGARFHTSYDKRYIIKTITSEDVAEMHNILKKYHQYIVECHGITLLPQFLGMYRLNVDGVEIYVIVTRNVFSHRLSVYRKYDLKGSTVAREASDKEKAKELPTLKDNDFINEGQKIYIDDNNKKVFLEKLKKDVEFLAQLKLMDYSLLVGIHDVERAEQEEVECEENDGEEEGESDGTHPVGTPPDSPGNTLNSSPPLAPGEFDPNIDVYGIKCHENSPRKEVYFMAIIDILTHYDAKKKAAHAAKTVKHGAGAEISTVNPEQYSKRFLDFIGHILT
Description: Dilution series of the compounds were prepared in DMSO at 100 times the final assay concentration (n1=n0/3 in 10 points). The compounds were further diluted to three times the assay concentration in assay buffer (20 mM MOPS pH 7.2, 25 mM magnesium chloride, 0.005% Tween 20). 6 μL of the diluted compounds were added to a 384 well assay plate followed by 9 μL of a mix consisting of 4 nM PIP4K2A (full length protein, SignalChem) and 100 μM PI(5)P diC8 (Tebu-Bio). Enzyme and compounds were pre-incubated at room temperature for 15 minutes.
Then 3 μL of a solution containing 60 μM ATP (Promega) in assay buffer was added to the wells containing compound and enzyme and mixing was performed by pipetting several times. The reaction was incubated at room temperature for 1 h. Then 18 μL of ADP-Glo™ Reagent (Promega) was added to stop the kinase reaction and deplete the unconsumed ATP, mixing was performed by pipetting several times. The plate was incubated at room temperature for 40 minutes before addition of 36 μL of Kinase Detection Reagent (Promega) to convert ADP to ATP and introduce luciferase and luciferin to detect ATP. The reaction was incubated at room temperature for 40 minutes before the luminescence was measured in a in a Victor 3V 1420 multilabel counter (Perkin Elmer).
Percent inhibition of the compounds as compared to dimethyl sulfoxide treated control samples was calculated. Compound concentration versus percent inhibition were fitted to generate IC50 values.

SMILES	IC50 (PIP4K2B)	IC50 (PIP4K 2A)
CC1Oc2cc(N3CCCC3=O)ccc2-c2cnc(Nc3cncc(NC(=O)c4cccc5c4OCO5)c3)cc21 (stereo not drawn) [Example 137, N-(5-((5-methyl-8-(2-oxopyrrolidin-1-yl)-5H-chromeno[4,3-c]pyridin-3-yl)amino)pyridin-3-yl)benzo[d][1,3]dioxole-4-carboxamide]	10 to 100 nM	1 to 10 nM
CC1Oc2cc(N3CCCC3=O)ccc2-c2cnc(Nc3cncc(NC(=O)C4Cc5ccccc5C4)c3)cc21 (stereo not drawn) [Example 138, N-(5-((5-methyl-8-(2-oxopyrrolidin-1-yl)-5H-chromeno[4,3-c]pyridin-3-yl)amino)pyridin-3-yl)-2,3-dihydro-1H-indene-2-carboxamide]	10 to 100 nM	10 to 100 nM
CC1Oc2cc(N3CCCC3=O)ccc2-c2cnc(Nc3cncc(NC(=O)c4cn5ccccc5n4)c3)cc21 (stereo not drawn) [Example 139, N-(5-((5-methyl-8-(2-oxopyrrolidin-1-yl)-5H-chromeno[4,3-c]pyridin-3-yl)amino)pyridin-3-yl)imidazo[1,2-a]pyridine-2-carboxamide]	10 to 100 nM	1 to 10 nM
CC1Oc2cc(N3CCCC3=O)ccc2-c2cnc(Nc3cncc(NC(=O)c4cc5ccccn5n4)c3)cc21 (stereo not drawn) [Example 140, N-(5-((5-methyl-8-(2-oxopyrrolidin-1-yl)-5H-chromeno[4,3-c]pyridin-3-yl)amino)pyridin-3-yl)pyrazolo[1,5-a]pyridine-2-carboxamide]	10 to 100 nM	1 to 10 nM
CC1Oc2cc(N3CCCC3=O)ccc2-c2cnc(Nc3cncc(NC(=O)c4cc5ccccc5[nH]4)c3)cc21 (stereo not drawn) [Example 141, N-(5-((5-methyl-8-(2-oxopyrrolidin-1-yl)-5H-chromeno[4,3-c]pyridin-3-yl)amino)pyridin-3-yl)-1H-indole-2-carboxamide]	10 to 100 nM	1 to 10 nM
CC1Oc2cc(N3CCCC3=O)ccc2-c2cnc(Nc3cncc(NC(=O)C4Cc5ccccc5O4)c3)cc21 (stereo not drawn) [Example 142, N-(5-((5-methyl-8-(2-oxopyrrolidin-1-yl)-5H-chromeno[4,3-c]pyridin-3-yl)amino)pyridin-3-yl)-2,3-dihydrobenzofuran-2-carboxamide]	100 to 1000 nM	10 to 100 nM
CC1Oc2cc(N3CCCC3=O)ccc2-c2cnc(Nc3cncc(NC(=O)c4cnc5ccccn45)c3)cc21 (stereo not drawn) [Example 143, N-(5-((5-methyl-8-(2-oxopyrrolidin-1-yl)-5H-chromeno[4,3-c]pyridin-3-yl)amino)pyridin-3-yl)imidazo[1,2-a]pyridine-3-carboxamide]	1 to 10 nM	≤ 1 nM
CC1Oc2cc(N3CCCC3=O)ccc2-c2cnc(Nc3cncc(NC(=O)c4cnn5ccccc45)c3)cc21 (stereo not drawn) [Example 144, N-(5-((5-methyl-8-(2-oxopyrrolidin-1-yl)-5H-chromeno[4,3-c]pyridin-3-yl)amino)pyridin-3-yl)pyrazolo[1,5-a]pyridine-3-carboxamide]	1 to 10 nM	≤ 1 nM
CC1Oc2cc(N3CCCC3=O)ccc2-c2cnc(Nc3cncc(NC(=O)Cc4cnc5ccccn45)c3)cc21 (stereo not drawn) [Example 145, 2-(imidazo[1,2-a]pyridin-3-yl)-N-(5-((5-methyl-8-(2-oxopyrrolidin-1-yl)-5H-chromeno[4,3-c]pyridin-3-yl)amino)pyridin-3-yl)acetamide]	10 to 100 nM	1 to 10 nM
CC1Oc2cc(N3CCCC3=O)ccc2-c2cnc(Nc3cncc(NC(=O)c4cccc5nccn45)c3)cc21 (stereo not drawn) [Example 146, N-(5-((5-methyl-8-(2-oxopyrrolidin-1-yl)-5H-chromeno[4,3-c]pyridin-3-yl)amino)pyridin-3-yl)imidazo[1,2-a]pyridine-5-carboxamide]	1 to 10 nM	≤ 1 nM
CC1Oc2cc(N3CCCC3=O)ccc2-c2cnc(Nc3cncc(NC(=O)c4ccn5ccnc5c4)c3)cc21 (stereo not drawn) [Example 147, N-(5-((5-methyl-8-(2-oxopyrrolidin-1-yl)-5H-chromeno[4,3-c]pyridin-3-yl)amino)pyridin-3-yl)imidazo[1,2-a]pyridine-7-carboxamide]	10 to 100 nM	1 to 10 nM
COC(=O)N1CCOc2ncc(Nc3cc4c(cn3)-c3cc(F)c(N5CCCC5=O)cc3OC4C)cc21 (stereo not drawn) [Example 150, methyl 7-((9-fluoro-5-methyl-8-(2-oxopyrrolidin-1-yl)-5H-chromeno[4,3-c]pyridin-3-yl)amino)-2,3-dihydro-1H-pyrido[2,3-b][1,4]oxazine-1-carboxylate]	1 to 10 nM	≤ 1 nM
CC1Oc2cc(N3CCCC3=O)c(F)cc2-c2cnc(Nc3cncc(N4CCNC4=O)c3)cc21 (stereo not drawn) [Example 151, 1-(5-((9-fluoro-5-methyl-8-(2-oxopyrrolidin-1-yl)-5H-chromeno[4,3-c]pyridin-3-yl)amino)pyridin-3-yl)imidazolidin-2-one]	10 to 100 nM	1 to 10 nM
CC1C[C@H]2COc3ncc(Nc4cc5c(cn4)-c4cc(F)c(N6CCCC6=O)cc4OC5C)cc3N2C1=O (stereo partly drawn) [Example 152, (6aS)-2-((9-fluoro-5-methyl-8-(2-oxopyrrolidin-1-yl)-5H-chromeno[4,3-c]pyridin-3-yl)amino)-8-methyl-6,6a,7,8-tetrahydro-9H-pyrido[2,3-b]pyrrolo[1,2-d][1,4]oxazin-9-one]	1 to 10 nM	≤ 1 nM
CC1Oc2cc(N3CCCC3=O)c(F)cc2-c2cnc(Nc3cnc4c(c3)N3C(=O)C(C)(C)C[C@H]3CO4)cc21 (stereo partly drawn) [Example 153, (6aS)-2-((9-fluoro-5-methyl-8-(2-oxopyrrolidin-1-yl)-5H-chromeno[4,3-c]pyridin-3-yl)amino)-8,8-dimethyl-6,6a,7,8-tetrahydro-9H-pyrido[2,3-b]pyrrolo[1,2-d][1,4]oxazin-9-one]	1 to 10 nM	≤ 1 nM
